Activity calls are given as the source filed them. The rule behind the calls is not given here.

Assay [1] deals with T1, Sterol O-acyltransferase 2 (Homo sapiens, UniProt O75908).
T1 sequence (O75908 whole entry): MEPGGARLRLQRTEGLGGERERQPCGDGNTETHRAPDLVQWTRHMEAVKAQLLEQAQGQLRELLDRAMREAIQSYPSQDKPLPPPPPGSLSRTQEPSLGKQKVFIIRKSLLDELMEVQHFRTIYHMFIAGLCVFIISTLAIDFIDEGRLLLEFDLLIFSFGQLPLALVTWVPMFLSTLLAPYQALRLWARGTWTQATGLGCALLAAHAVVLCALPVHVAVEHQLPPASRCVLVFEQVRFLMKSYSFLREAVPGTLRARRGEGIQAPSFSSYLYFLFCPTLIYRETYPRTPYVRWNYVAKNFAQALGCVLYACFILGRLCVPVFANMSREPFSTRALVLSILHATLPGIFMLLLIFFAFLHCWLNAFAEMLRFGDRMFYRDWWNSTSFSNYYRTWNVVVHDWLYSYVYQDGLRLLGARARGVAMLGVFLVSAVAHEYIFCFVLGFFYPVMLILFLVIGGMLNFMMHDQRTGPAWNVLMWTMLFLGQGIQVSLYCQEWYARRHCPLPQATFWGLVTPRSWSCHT
Description: Inhibition of human ACAT2 expressed in Hi5 cells. Also noted: species or system BTI-TN-5B1-4.

The target of assay [2] is T2, Sterol O-acyltransferase 1 (Homo sapiens, UniProt P35610).
T2 sequence (P35610 whole entry): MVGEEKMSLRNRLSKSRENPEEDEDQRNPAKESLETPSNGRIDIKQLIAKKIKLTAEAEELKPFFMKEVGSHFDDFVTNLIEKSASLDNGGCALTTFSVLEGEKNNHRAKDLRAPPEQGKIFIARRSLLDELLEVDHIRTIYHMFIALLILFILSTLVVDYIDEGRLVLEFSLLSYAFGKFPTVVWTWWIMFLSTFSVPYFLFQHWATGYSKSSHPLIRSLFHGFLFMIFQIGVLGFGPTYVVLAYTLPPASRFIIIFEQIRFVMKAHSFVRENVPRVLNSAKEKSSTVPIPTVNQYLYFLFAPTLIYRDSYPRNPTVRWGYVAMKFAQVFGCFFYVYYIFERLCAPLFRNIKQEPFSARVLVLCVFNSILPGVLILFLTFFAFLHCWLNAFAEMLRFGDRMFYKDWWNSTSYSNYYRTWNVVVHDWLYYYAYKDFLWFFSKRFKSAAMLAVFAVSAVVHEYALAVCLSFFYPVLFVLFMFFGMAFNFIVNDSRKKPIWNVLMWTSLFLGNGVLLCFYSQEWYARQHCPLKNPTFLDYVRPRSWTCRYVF
Description: (§1) Inhibition of human ACAT1 expressed in Hi5 cells. Also noted: species or system BTI-TN-5B1-4.

Assay [3] concerns the target T3, Sterol O-acyltransferase 1 (Homo sapiens) (UniProt P35610).
T3 sequence (whole entry): T2 sequence (P35610 whole entry)
Described as §1. The settings on record: BTI-TN-5B1-4.

Assay [4] concerns RAW. Description: Inhibition of LPS-induced iNOS protein expression in mouse RAW 264.7 cells at 5 uM. In kind it is functional, cell-based.
The test system of assay [5] is RAW. Description: Inhibition of LPS-induced iNOS protein expression in mouse RAW 264.7 cells at 20 uM. In kind it is functional, cell-based.
Assay [6] deals with RAW. Description: Effect on cell viability in mouse RAW 264.7 cells at 80 uM by MTT method. In kind it is functional, cell-based. A general note: Tetrazolium assays rely on reduction of a dye to a coloured formazan, in cell work by metabolically active cells.
In assay [7] the test system is RAW. The assay is described as follows: Inhibition of LPS-induced iNOS protein expression in mouse RAW 264.7 cells at 50 uM. The assay is classed as functional, cell-based.
Assay [8] deals with RAW. The assay is described as follows: Inhibition of LPS-induced iNOS protein expression in mouse RAW 264.7 cells at 10 uM. The assay is classed as functional, cell-based.
Assay [9] relates to RAW. The assay is described as follows: Inhibition of LPS-induced NO production in mouse RAW 264.7 cells at 50 uM after 18 hrs. In kind it is functional, cell-based.
For assay [10], the system named is RAW. The assay is described as follows: Inhibition of LPS-induced NO production in mouse RAW 264.7 cells after 18 hrs. In kind it is functional, cell-based.
For assay [11], the system named is Plasma. Description: Antioxidant activity against human plasma LDL oxidation by TBARS assay. The assay is classed as functional, cell-free.
Assay [12] has as its system RAW. Description: Effect on cell viability in mouse RAW 264.7 cells at 50 uM by MTT method. The assay is classed as functional, cell-based.

As usually defined, the IC50 is the concentration needed to halve the response being measured. As for `C=CC(C)(C)c1c(O)cc(O)c2c(=O)c3cc(O)c4c(c3oc12)C=CC(C)(C)O4`, the half-inhibitory concentration (IC50) in assay [1] is 28.8 µM; in [2] it was 40 µM.
Consider `C=CC(C)(C)c1c(OC)cc(O)c2c(=O)c3ccc(O)c(O)c3oc12` [ISOCUDRANIAXANTHONE B], for which the IC50 in assay [1] came out at 133 µM.
In assay [1], `C=CC(C)(C)c1c(O)cc2oc3c(CC=C(C)C)c(O)c(O)cc3c(=O)c2c1O` [CUDRAXANTHONE L] had an IC50 of 74.4 µM. Against the preceding compound, the IC50 is about 1.8-fold lower.
As for `C=CC(C)(C)c1c(O)c(CC=C(C)C)c2oc3cc(O)c(O)cc3c(=O)c2c1O` [MACLURAXANTHONE B], half-maximal inhibition in [1] (IC50) was put at 112 µM.
On to `CC1(C)C=Cc2c(cc3oc(-c4ccc(O)cc4O)cc(=O)c3c2O)O1`, for which, in [1], the IC50 came out at 77.6 µM. The outcome in assay [3] was inactive.
Turning to `C=CC(C)(C)c1c(OC)cc(O)c2c(=O)c3c(CC=C(C)C)c(O)c(O)cc3oc12` [CUDRAXANTHONE D], the IC50 in assay [1] was found to be 75.2 µM.
`CC(C)=CCc1c(O)c(O)cc2c(=O)c3c(O)c4c(cc3oc12)OC(C)C4(C)C` (configuration not stated) [CUDRAXANTHONE M] yielded an IC50 in [1] of 23.2 µM.
`CC(C)=CCc1cc([C@@H]2CC(=O)c3c(cc(O)c(CC=C(C)C)c3O)O2)c(O)cc1O`: the result in [4], in assay [5], in [7], in [8], in [9] and in [10] was Active. This compound had an IC50 in [1] of 89.6 µM. For the same compound, the outcome in assay [6] and in [3] was inactive.
The compound `C=CC(C)(C)c1c(O)cc(O)c2c(=O)c3c(CC=C(C)C)c(OC)c(O)cc3oc12` [CUDRAXANTHONE C] had an IC50 in assay [1] of 19.2 µM. Besides, the result in assay [11] was inactive.
For the compound `CC(C)(O)CCc1c(O)cc(O)c2c1O[C@H](c1cc3c(cc1O)OC(C)(C)C=C3)CC2=O`, the outcome in [4], in assay [5], in [7], in assay [8], in assay [9] and in assay [10] was Active. In assay [1], this compound returned an IC50 of 44.8 µM. For the same compound, the result in assay [12] was inactive.
Turning to `CC(C)=CCc1c(-c2ccc(O)cc2O)oc2cc3c(c(O)c2c1=O)C=CC(C)(C)O3` [CUDRAFLAVONE B], the outcome in assay [4], in assay [5], in [7] and in assay [8] was Active. In [1], the IC50 came out at 41.6 µM. For the same compound, the result in [6] and in assay [3] was inactive. Further, the Activity result in [10] is “Dose-dependent effect”.
The compound `CC(C)=CCc1c(O)cc2c(c1O)C(=O)C[C@@H](c1cc3c(cc1O)OC(C)(C)C=C3)O2` [CUDRAFLAVANONE A] gave a 50% inhibitory concentration (IC50) in [1] of 24.8 µM.

The values above are taken from ChEMBL document CHEMBL1139676, “Anti-atherosclerotic and anti-inflammatory activities of catecholic xanthones and flavonoids isolated from Cudrania tricuspidata” (Bioorg Med Chem Lett, 2006).
